Legend:
Assay in all cases: relative viability (nuclei count vs DMSO), 5 days (fraction); higher = more cells survive
[1] = compound: Cc1ccc2nc(NCCN)c3ncc(C)n3c2c1 + Nc1nc2[nH]cc(CCc3ccc(C(=O)N[C@@H](CCC(=O)O)C(=O)O)cc3)c2c(=O)[nH]1 [Pemetrexed] (partner 0.2 µM)
Procedure, shortened: (§1)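 Relative viability equals treated-well nuclei counts divided by vehicle-well nuclei counts. Counts came from 4× images of lung cancer cell lines grown in 1536-well plates for 5 days after pin-tool dosing on the day after seeding. Dosing used one drug alone or a fixed anchor-drug dose plus five library-drug doses (not always all listed) in √10 steps, and values are medians of duplicate plates.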

Salubrinal + OSI-027 = compound: O=C(/C=C/c1ccccc1)NC(NC(=S)Nc1cccc2cccnc12)C(Cl)(Cl)Cl [Salubrinal] + COc1cccc2cc(-c3nc([C@H]4CC[C@H](C(=O)O)CC4)n4ncnc(N)c34)[nH]c12 [OSI-027] (partner 0.5 µM)
Procedure, shortened: as §1

Salubrinal + Decitabine = compound: O=C(/C=C/c1ccccc1)NC(NC(=S)Nc1cccc2cccnc12)C(Cl)(Cl)Cl [Salubrinal] + Nc1ncn([C@H]2C[C@H](O)[C@@H](CO)O2)c(=O)n1 [Decitabine] (partner 2 µM)
Procedure, shortened: as §1

Salubrinal + Olaparib = compound: O=C(/C=C/c1ccccc1)NC(NC(=S)Nc1cccc2cccnc12)C(Cl)(Cl)Cl [Salubrinal] + O=C(c1cc(Cc2n[nH]c(=O)c3ccccc23)ccc1F)N1CCN(C(=O)C2CC2)CC1 [Olaparib] (partner 8 µM)
Procedure, shortened: as §1

| Cell Line | relative viability ([1]; first compound 0.04 µM) | relative viability ([1]; first compound 0.1265 µM) | relative viability ([1]; first compound 0.4 µM) | relative viability ([1]; first compound 1.265 µM) | relative viability ([1]; first compound 4 µM) | relative viability (Salubrinal + OSI-027; first compound 0.08 µM) | relative viability (Salubrinal + OSI-027; first compound 0.253 µM) | relative viability (Salubrinal + OSI-027; first compound 0.8 µM) | relative viability (Salubrinal + OSI-027; first compound 2.53 µM) | relative viability (Salubrinal + OSI-027; first compound 8 µM) | relative viability (Salubrinal + Decitabine; first compound 0.08 µM) | relative viability (Salubrinal + Decitabine; first compound 0.253 µM) | relative viability (Salubrinal + Decitabine; first compound 0.8 µM) | relative viability (Salubrinal + Decitabine; first compound 2.53 µM) | relative viability (Salubrinal + Decitabine; first compound 8 µM) | relative viability (Salubrinal + Olaparib; first compound 0.08 µM) | relative viability (Salubrinal + Olaparib; first compound 0.253 µM) | relative viability (Salubrinal + Olaparib; first compound 0.8 µM) | relative viability (Salubrinal + Olaparib; first compound 2.53 µM) | relative viability (Salubrinal + Olaparib; first compound 8 µM) |
| --- | --- | --- | --- | --- | --- | --- | --- | --- | --- | --- | --- | --- | --- | --- | --- | --- | --- | --- | --- | --- |
| HCC-44 | 0.679 | 0.704 | 0.643 | 0.594 | 0.709 | 0.371 | 0.411 | 0.759 | 0.501 | 0.484 | 0.955 | 0.969 | 0.935 | 0.934 | 0.919 | 1 | 0.968 | 1.03 | 0.957 | 1.03 |
| HCC-827 | 0.261 | 0.242 | 0.273 | 0.24 | 0.266 | 0.88 | 0.794 | 0.822 | 0.788 | 0.668 | 0.303 | 0.335 | 0.361 | 0.345 | 0.341 | 0.684 | 0.646 | 0.647 | 0.629 | 0.664 |
| NCI-H2342 | 0.871 | 0.817 | 0.751 | 0.827 | 0.713 | 0.653 | 0.523 | 0.608 | 0.639 | 0.561 | 0.797 | 0.82 | 0.657 | 0.769 | 0.595 | 0.456 | 0.45 | 0.455 | 0.432 | 0.497 |
| NCI-H2347 | 0.447 | 0.479 | 0.454 | 0.412 | 0.424 | 0.289 | 0.308 | 0.379 | 0.349 | 0.422 | 0.598 | 0.571 | 0.663 | 0.649 | 0.661 | 0.595 | 0.657 | 0.609 | 0.613 | 0.584 |
| PC-14 | 0.135 | 0.14 | 0.157 | 0.15 | 0.151 | 0.966 | 0.822 | 0.98 | 0.798 | 0.616 | 0.211 | 0.228 | 0.201 | 0.189 | 0.236 | 0.278 | 0.258 | 0.259 | 0.246 | 0.25 |
| NCI-H1651 | 0.578 | 0.639 | 0.647 | 0.591 | 0.502 | 0.954 | 0.599 | 0.794 | 0.827 | 0.563 | 0.654 | 0.542 | 0.681 | 0.634 | 0.661 | 0.189 | 0.181 | 0.208 | 0.152 | 0.183 |
| HARA | 0.217 | 0.237 | 0.226 | 0.236 | 0.234 | 0.539 | 0.557 | 0.582 | 0.524 | 0.462 | 0.402 | 0.498 | 0.601 | 0.517 | 0.605 | 0.834 | 1.17 | 0.907 | 0.682 | 0.634 |
| NCI-H1650 | 0.352 | 0.386 | 0.349 | 0.376 | 0.332 | 0.929 | 0.525 | 0.718 | 0.583 | 0.607 | 0.522 | 0.453 | 0.417 | 0.476 | 0.455 | 0.941 | 0.705 | 0.811 | 0.751 | 0.804 |

From the supplement of paper PMC10307832
